Like-named read-outs stand apart in the source and are kept apart here.
Key:
[1] = biological target: T1, human 5HT1A-serotonergic receptor (Homo sapiens, UniProt P08908); experiment: Radioligand binding to recombinant 5-HT1A receptor ([3H]8-OH-DPAT, HeLa cell membranes); conditions: 1 nM [3H]8-OH-DPAT; Ki from IC50 by the Cheng equation; read-out: Ki (nM), binding affinity for 5HT1A receptor
T1 construct: expressed in transfected cells; host or cells: HeLa (human), stably transfected; membranes
T1 sequence (P08908 1-422): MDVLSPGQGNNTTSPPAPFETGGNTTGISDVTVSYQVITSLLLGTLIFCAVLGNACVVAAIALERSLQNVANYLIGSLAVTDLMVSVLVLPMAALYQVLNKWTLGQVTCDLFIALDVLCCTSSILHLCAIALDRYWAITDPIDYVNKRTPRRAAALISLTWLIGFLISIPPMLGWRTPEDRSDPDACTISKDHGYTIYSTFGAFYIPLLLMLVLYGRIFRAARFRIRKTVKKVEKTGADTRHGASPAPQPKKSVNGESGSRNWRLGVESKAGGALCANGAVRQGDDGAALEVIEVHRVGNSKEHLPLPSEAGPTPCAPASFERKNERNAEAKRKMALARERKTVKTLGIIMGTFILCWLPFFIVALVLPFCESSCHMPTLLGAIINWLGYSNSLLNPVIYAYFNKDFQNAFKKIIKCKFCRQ
Protocol: Genomic clone G-21 encoding the human 5HT1A-serotonergic receptor was stably transfected in a human cell line (HeLa). HeLa cells were grown as monolayers in Dulbecco's modified Eagle medium (DMEM), containing 10% fetal bovine serum and gentamycin (100 μg/ml) at 37° C. in a humidified atmosphere of 5% CO2 and air. The cells were detached from the growth flask at 95% confluence by a cell scraper and were lysed in cold 5 mM Tris and 5 mM EDTA buffer (pH 7.4). The homogenates were centrifuged at 40000×g×20 minutes and the pellets were resuspended in a small volume of cold 5 mM Tris and 5 mM EDTA buffer (pH 7.4) and immediately frozen and stored at −70° C. until use. On the day of experiment, the cell membranes were resuspended in incubation buffer: 50 mM Tris (pH 7.4), 2.5 mM MgCl2, 10 μM pargyline (Fargin et al., Nature 335, 358-360, 1988). The membranes were incubated in a final volume of 0.32 ml for 30 minutes at 30° C. with 1 nM [^3H]8-OH-DPAT, in the absence or presence of the test compounds. Non-specific binding was determined in the presence of 10 μM 5-HT. Incubation was stopped by addition of cold Tris buffer and rapid filtration through UniFilter GF/C plate.
The affinity of the tested compounds was evaluated as inhibition of specific binding of the radioligand to 5-HT1A receptor (IC50) by using the non-linear curve-fitting program Allfit (De Lean et al., Am. J. Physiol. 235, E97-E102 (1978)). The IC50 value was converted to an affinity constant (Ki) by the equation of Cheng et al., Biochem. Pharmacol. 22, 3099-3108 (1973).

5-HT1A receptors = biological target: T2, 5-HT1A receptors (Rattus norvegicus, UniProt P19327); experiment: Inhibition of serotonergic syndrome (forepaw treading) induced by 8-OH-DPAT in rats (post-synaptic antagonism); assay type: in vivo; conditions: rat, 10 mg/kg p.o.
T2 construct: from tissue; host or cells: living male Sprague-Dawley rats (whole animal, behavioural read-out)
T2 sequence (P19327 1-422): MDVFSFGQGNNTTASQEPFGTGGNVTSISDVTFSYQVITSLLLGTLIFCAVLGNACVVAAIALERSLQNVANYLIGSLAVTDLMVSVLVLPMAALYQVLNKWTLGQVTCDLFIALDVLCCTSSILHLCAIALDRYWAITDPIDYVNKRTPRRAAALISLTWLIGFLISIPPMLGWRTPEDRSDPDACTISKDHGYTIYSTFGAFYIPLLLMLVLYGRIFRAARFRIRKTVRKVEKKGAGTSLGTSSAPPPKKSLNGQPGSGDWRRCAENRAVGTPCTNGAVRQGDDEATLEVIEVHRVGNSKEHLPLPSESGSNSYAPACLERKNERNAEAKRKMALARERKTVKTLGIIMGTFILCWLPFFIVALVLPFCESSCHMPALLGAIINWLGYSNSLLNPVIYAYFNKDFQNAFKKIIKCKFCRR
Protocol: The inhibitory effect of 5-HT1A-receptor antagonists on stereotyped forepaw treading induced in rats by subcutaneous injection of 8-OH-DPAT was evaluated by the method of Tricklebank (Tricklebank et al., Eur. J. Pharmacol., 117: 15, 1985) with minor modifications as described below.
Male Sprague-Dawley rats [Crl: CD® (SD) IGS BR] weighing 150-175 g from Charles River Italia were used. The animals were housed with free access to food and water and maintained on a forced 12-hour-light/12-hour-dark cycle at 22-24° C. of temperature. On the day of the experiment, the rats were placed singly in clear plastic containers, 10-15 minutes before oral administration of the vehicle or compounds to be tested. For evaluation of antagonistic activity, the compounds were administered 1 and 4 hours before induction of stereotypy by 8-OH-DPAT (1 mg/kg subcutaneously). Observation sessions lasted 30 seconds and began 3 minutes after 8-OH-DPAT treatment and were repeated every 3 minutes over a period of 15 minutes.
The appearance of the symptoms induced by postsynaptic stimulation of 5-HT1A receptors was noted, and the intensity was scored using an intensity scale in which: 0=absent, 1=equivocal, 2=present and 3=intense. Behavioural scores for treated rats were accumulated throughout the observation time (5 observation periods) and expressed as mean values of 4 rats/dose. Change in mean values of treated animals in comparison with control (vehicle) group, expressed as per-cent inhibition, was used to quantify the antagonistic activity.
In order to quantitate the potency of the compound of Example 24 in inhibiting the stereotypy (forepaw treading) induced by 8-OH-DPAT, an ED50 value (dose inhibiting by 50% the forepaw treading) was evaluated by means of linear regression using the least square method.

[2] = tested on: rhythmic bladder-voiding contractions; experiment: Rhythmic bladder-voiding contractions induced by bladder filling in anaesthetised rats; assay type: in vivo, rat; conditions: intravenous administration
Protocol: Female Sprague-Dawley rats weighing 225-275 g (Crl: CD® (SD) IGS BR, Charles River Italia) were used. The animals were housed with free access to food and water and maintained on a forced 12-hour alternating light-dark cycle at 22-24° C. for at least one week, except during the experiment. The activity on rhythmic bladder voiding contractions was evaluated according to the method of Dray (Dray J., Pharmacol. Methods, 13:157, 1985), with some modifications as in Guarneri (Guarneri, Pharmacol. Res. 27:173, 1993). Briefly, the rats were anaesthetised by subcutaneous injection of 1.25 g/kg (5 ml/kg) urethane, after which the urinary bladder was catheterised via the urethra using PE 50 polyethylene tubing filled with physiological saline. The catheter was tied in place with a ligature around the external urethral orifice and was connected to conventional pressure transducers (Statham P23 ID/P23 XL). […] The bladder was then filled via the recording catheter by incremental volumes of warm (37° C.) saline until reflex bladder-voiding contractions occurred (usually 0.8-1.5 ml). For intravenous injection of bioactive compounds, PE 50 polyethylene tubing filled with physiological saline was inserted into the jugular vein.
From the cystometrogram, the number of contractions recorded 15 minutes before (basal values) and after treatment, as well as the mean amplitude of these contractions (mean height of the peaks in mmHg), was evaluated.
Since most compounds produced an effect that was relatively rapid in onset and led to a complete cessation of bladder contractions, bioactivity was conveniently estimated by measuring the duration of bladder quiescence (i.e., the time during which no contractions occurred). The number of tested animals showing a reduction in the number of contractions higher than 30% of that observed in the basal period was recorded too.
The extrapolated doses which induced a reduction in the number of contractions greater than 30% in 50% of the treated rats (ED50) were also evaluated by the method of Bliss (Bliss C. I., Quart J. Pharm. Pharmacol. 11, 192-216, 1938).

[3] = 1 h before 8-OH-DPAT 1 mg/kg s.c., read-out: % Inhibition of forepaw treading, 1 h
[4] = 4 h before 8-OH-DPAT 1 mg/kg s.c., read-out: % Inhibition of forepaw treading, 4 h

Structure (SMILES)	Ki [1] [nM]	inhibition at 10 mg/kg (5-HT1A receptors; [3]) [%]	inhibition at 10 mg/kg (5-HT1A receptors; [4]) [%]	ED50 ([2]; Rattus norvegicus, read-out: ED50 (frequency) (extrapolated dose inducing a reduction of the number of contractions >30% in 50% of treated rats)) [mg/kg]	ED10 min (extrapolated dose inducing 10 minutes of disappearance of the contractions) [2] [mg/kg]
COc1ccc(Br)c(CN2CCN(CCC(c3ccccc3F)C(C3CCCCC3)N(C)C(C)=O)CC2)c1 (centres unmarked) [Example 46, N-[4-[4-(2-Bromo-5-methoxybenzyl)piperazin-1-yl]-1-cyclohexyl-2-(2-fluorophenyl)butyl]-N-methylacetamide]	0.8	–	–	–	–
COc1ccccc1N1CCN(CC[C@@H](c2ccccc2F)[C@H](NC(C)C)C2CCCCC2)CC1 (racemic) [Example 12, (RS,SR)-{1-Cyclohexyl-2-(2-fluorophenyl)-4-[4-(2-methoxyphenyl)-piperazin-1-yl]butyl}isopropylamine]	0.99	–	–	–	–
COc1ccccc1N1CCN(CC[C@@H](c2ccccc2F)[C@@H](C2CCCCC2)N(C)C(=O)N(C)C)CC1 (racemic) [Example 22, 1-{(RS,SR)-1-Cyclohexyl-2-(2-fluorophenyl)-4-[4-(2-methoxyphenyl)-piperazin-1-yl]butyl}-1,3,3-trimethylurea]	1.24	–	–	–	–
COc1ccc(Br)c(CN2CCN(CCC(c3ccccc3F)C(NC(C)=O)C3CCCCC3)CC2)c1 (centres unmarked) [Example 45, N-[4-[4-(2-Bromo-5-methoxybenzyl)piperazin-1-yl]-1-cyclohexyl-2-(2-fluoro-phenyl)butyl]acetamide]	1.1	–	–	–	–
Cc1c(-c2ccccc2)oc2c(C(=O)OCCN3CCCCC3)cccc2c1=O [Flavoxate, flavoxate]	–	–	–	2.65	>10

More lines, main results first:

Ki [1] [nM]	inhibition at 10 mg/kg (5-HT1A receptors; [3]) [%]	inhibition at 10 mg/kg (5-HT1A receptors; [4]) [%]	Structure (SMILES)	ED50 ([2]; Rattus norvegicus, read-out: ED50 (frequency) (extrapolated dose inducing a reduction of the number of contractions >30% in 50% of treated rats)) [mg/kg]	ED10 min (extrapolated dose inducing 10 minutes of disappearance of the contractions) [2] [mg/kg]
2.1	94	65	COc1ccccc1N1CCN(CC[C@@H](c2ccccc2F)[C@H](NC(=O)N(C)C)C2CCCCC2)CC1 (racemic) [Example 21, 3-{(RS,SR)-1-Cyclohexyl-2-(2-fluorophenyl)-4-[4-(2-methoxyphenyl)-piperazin-1-yl]butyl}-1,1-dimethylurea]	–	–
–	71	67	CON[C@H](C1CCCCC1)[C@H](CCN1CCN(c2ccccc2OC)CC1)c1ccccc1F (racemic) [Example 4b, (RS,RS)-N-{1-Cyclohexyl-2-(2-fluorophenyl)-4-[4-(2-methoxyphenyl)piperazin-1-yl]butyl}-O-methylhydroxylamine]	–	–
1	56	56	COc1ccccc1N1CCN(CC[C@@H](c2ccccc2F)[C@@H](C2CCCCC2)N(C)C)CC1 (racemic) [Example 11, {(RS,SR)-1-Cyclohexyl-2-(2-fluorophenyl)-4-[4-(2-methoxyphenyl)-piperazin-1-yl]butyl}dimethylamine]	–	–
0.88	86	68	CONC(C1CCCCC1)C(CCN1CCN(c2ccccc2OC)CC1)c1ccccc1F (mixture of isomers) [Example 4, N-{1-Cyclohexyl-2-(2-fluorophenyl)-4-[4-(2-methoxyphenyl)piperazin-1-yl]butyl}-O-methylhydroxylamine]	–	–
0.16	71	–	COc1ccccc1N1CCN(CCC(C(=NO)C2CCCCC2)c2ccccc2F)CC1 (mixture of isomers) [Example 1, 1-Cyclohexyl-2-(2-fluorophenyl)-4-[4-(2-methoxyphenyl)-piperazin-1-yl]butan-1-one oxime]	–	–
0.38	–	–	CO/N=C(\C1CCCCC1)C(CCN1CCN(c2cccc3c2OCCO3)CC1)c1ccccc1C#N (racemic) [Example 26, (R,S)-2-{1′-{Cyclohexyl-[(E)-methoxyimino]methyl}-3-[4-(2,3-dihydrobenzo[1,4]dioxin-5-yl)-piperazin-1-yl]propyl}benzonitrile]	–	–

— US20070270436A1, “NOVEL AMINO- AND IMINO-ALKYLPIPERAZINES” (Recordati Ireland Limited, priority 2006, published 2007)
